Test results from patent US9375496B2, “Halogenated compounds for cancer imaging and treatment and methods for their use” (The University of British Columbia, priority 2013, dated 2016).

Tests used:
estrogen receptor-α (ER) = target: T1, estrogen receptor-α (ER) (Homo sapiens, UniProt P03372); test: ERE-luciferase reporter assay in LNCaP cells cotransfected with full-length human ERα; type: cell-based; conditions: 1.9 μM 8d, 10 nM E2 (estradiol), 24 h, LNCaP cells (FIG. 2D)
T1 construct: expression plasmids for full-length human ERα; expressed in transfected cells; host or cells: LNCaP
T1 sequence (P03372 1-595): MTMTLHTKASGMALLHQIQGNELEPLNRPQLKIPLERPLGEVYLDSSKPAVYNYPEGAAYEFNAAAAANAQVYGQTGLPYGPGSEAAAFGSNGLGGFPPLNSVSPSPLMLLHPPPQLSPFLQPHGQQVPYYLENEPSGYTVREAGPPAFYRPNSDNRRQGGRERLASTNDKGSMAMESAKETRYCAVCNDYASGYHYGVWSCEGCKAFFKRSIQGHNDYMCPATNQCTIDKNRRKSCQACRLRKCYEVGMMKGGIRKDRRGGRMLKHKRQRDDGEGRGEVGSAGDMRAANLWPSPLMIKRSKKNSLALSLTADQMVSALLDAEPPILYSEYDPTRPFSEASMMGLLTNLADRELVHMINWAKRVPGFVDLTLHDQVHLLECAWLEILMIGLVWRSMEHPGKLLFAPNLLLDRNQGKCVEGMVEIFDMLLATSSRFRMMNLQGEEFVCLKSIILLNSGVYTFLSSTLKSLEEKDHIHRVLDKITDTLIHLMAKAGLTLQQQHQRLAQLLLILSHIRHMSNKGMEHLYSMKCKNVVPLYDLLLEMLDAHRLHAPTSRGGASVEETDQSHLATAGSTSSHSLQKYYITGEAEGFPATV
Method: To assess specificity for the AR, parallel experiments were performed in LNCaP cells with endogenous AR and ectopic expression of other closely related human hormone receptors such as the progesterone receptor-beta (PRβ), glucocorticoid receptor (GR) and estrogen receptor-α (ER).
For 8d, 1 μg/mL=1.9 μM in FIGS. 2A-2D.

recombinant LBD of GR = target: T2, recombinant LBD of GR (Homo sapiens, UniProt P04150); test: Competitive ligand-binding assay (fluorescent polarization), recombinant GR LBD; conditions: 1 nM fluorescently labeled ligand, 5 h incubation, serial dilution
T2 sequence (P04150 524-758 limits assumed): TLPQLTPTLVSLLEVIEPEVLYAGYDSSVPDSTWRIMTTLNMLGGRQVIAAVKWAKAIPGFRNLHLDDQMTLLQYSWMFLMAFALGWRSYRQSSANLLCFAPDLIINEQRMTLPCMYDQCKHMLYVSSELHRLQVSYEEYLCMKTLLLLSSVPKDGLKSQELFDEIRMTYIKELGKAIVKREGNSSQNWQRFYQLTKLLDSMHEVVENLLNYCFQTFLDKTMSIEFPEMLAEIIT
Method: (§1) Competitive ligand-binding assays to detect the displacement of fluorescently labeled ligand from recombinant LBDs (ligand binding domains) of AR, PR, GR and estrogen receptor (ER) by R1881, MDV3100, Z (also referred to as EPI-002 or EPI) or 8d (also referred to as iodinated EPI) were performed. FIGS. 14A-14E display competitive ligand-binding curves to indicate whether R1881, Z, antiandrogens (enzalutamide, hydroxyflutamide, bicalutamide) or 8d can displace 1 nM fluorescently labeled cognant ligand from recombinant LBDs of steroid hormone receptors by using fluorescent polarization (mP). Serial dilution was performed for each test compound. Mixtures were incubated for 5 h before measurement of fluorescent polarization.

DU145 cells = test: DU145 cell viability, alamarBlue Cell Viability Assay; type: cell-based; conditions: day 3, at concentrations that reduced LNCaP proliferation
Source text: (§2) Effects of 8d (also referred to as I-EPI-002) on androgen-dependent proliferation of LNCaP cells treated with R1881 were compared with PC3 and DU145 cell viability by alamarBlue Cell Viability Assay (FIG. 16).

recombinant LBD of PR = target: T3, recombinant LBD of PR (Homo sapiens, UniProt P06401); test: Competitive ligand-binding assay (fluorescent polarization), recombinant PR LBD; conditions: 1 nM fluorescently labeled ligand, 5 h incubation, serial dilution
T3 sequence (P06401 679-913 limits assumed): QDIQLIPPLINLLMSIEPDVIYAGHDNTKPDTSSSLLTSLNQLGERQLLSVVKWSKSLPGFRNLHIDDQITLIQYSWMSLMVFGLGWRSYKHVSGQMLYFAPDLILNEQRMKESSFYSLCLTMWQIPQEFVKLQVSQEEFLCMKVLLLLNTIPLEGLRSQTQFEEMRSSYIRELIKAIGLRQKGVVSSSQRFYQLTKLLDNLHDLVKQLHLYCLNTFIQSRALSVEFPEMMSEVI
Method: as §1

LNCaP cells = test: Androgen-dependent proliferation of LNCaP cells, alamarBlue Cell Viability Assay; type: cell-based; conditions: LNCaP treated with R1881, day 4, alamarBlue
Source text: as §2

SMILES: CC(C)(c1ccc(OC[C@H](O)CO)cc1)c1ccc(OC[C@H](O)CCl)c(I)c1 [Compound 8d, (R)-3-(4-(2-(4-((S)-3-chloro-2-hydroxypropoxy)-3-iodophenyl)propan-2-yl)phenoxy)propane-1,2-diol]
- ERα activity (ERE-luciferase) (estrogen receptor-α (ER)): not inhibited
- binding to LBD of GR (displacement of fluorescently labeled ligand) (recombinant LBD of GR): does not bind
- viability of DU145 cells (DU145 cells): no effect
- binding to LBD of PR (displacement of fluorescently labeled ligand) (recombinant LBD of PR): does not bind
- AR-dependent proliferation of LNCaP cells (LNCaP cells): reduced
